Data set [1] relates to C57BL/6 mice. Briefly: Glucose tolerance in mice. Conditions: PP peptide 25 nmol/kg with CCK‐8 25 nmol/kg and glucose 18 mmol/kg i.p.; n = 6. The class given is in vivo. How it is done: Acute in vivo studies were conducted in groups (n = 6) of 4‐month‐old male C57BL/6 mice (Envigo, Huntington, UK). All mice were maintained on standard rodent chow (10% fat, 30% protein, and 60% carbohydrate; Trouw Nutrition, Northwich, UK), and drinking water provided ad libitum. Mice were housed individually and kept in a temperature‐controlled environment (22 ± 2°C), with a 12‐h light/dark cycle. Experiments were carried out in accordance with the UK Animal Scientific Procedures Act 1986 as well as being approved by Ulster University Animal Ethics Review Committee (AWERB) committee and protected by the UK Home Office Animal project license number PPL2902, approved on April 26, 2021. Acute effects of test peptides on food intake were tested in overnight (16 h) fasted mice. Briefly, fasted mice were administered an intraperitoneal (i.p.) injection of saline vehicle (0.9% (w/v) NaCl) alone or in combination with test peptides (each at 25, 75, or 200 nmol/kg bw) and cumulative food intake measured at regular intervals, to assess the pharmacodynamic profile of the test peptides. For food intake studies, mice were provided with preweighed rodent maintenance diet in their food hopper at t = 0 min, which was then re‐weighed at each timepoint with all due care taken to account for any wastage or crumbling of the food pellets. In this regard, the investigator was present at all times during the 180‐min test period to ensure accuracy and consistency in all measurements. Furthermore, effects of PP or related peptides (25 nmol/kg bw) on glucose homeostasis and insulin secretion were evaluated in overnight fasted mice following i.p. injection of glucose alone (18 mmol/kg bw) or in combination with PP peptides (each at 25 nmol/kg bw). […] Blood glucose was measured immediately using a hand‐held Ascencia Contour blood glucose meter (Bayer Healthcare, Newbury, Berkshire, UK). […]

In data set [2] the test system is C57BL/6 mice. Briefly: Acute food intake in overnight fasted mice. The class given is in vivo. Conditions: i.p., overnight fasted mice. Here is the method: Acute in vivo studies were conducted in groups (n = 6) of 4‐month‐old male C57BL/6 mice (Envigo, Huntington, UK). All mice were maintained on standard rodent chow (10% fat, 30% protein, and 60% carbohydrate; Trouw Nutrition, Northwich, UK), and drinking water provided ad libitum. Mice were housed individually and kept in a temperature‐controlled environment (22 ± 2°C), with a 12‐h light/dark cycle. Experiments were carried out in accordance with the UK Animal Scientific Procedures Act 1986 as well as being approved by Ulster University Animal Ethics Review Committee (AWERB) committee and protected by the UK Home Office Animal project license number PPL2902, approved on April 26, 2021. Acute effects of test peptides on food intake were tested in overnight (16 h) fasted mice. Briefly, fasted mice were administered an intraperitoneal (i.p.) injection of saline vehicle (0.9% (w/v) NaCl) alone or in combination with test peptides (each at 25, 75, or 200 nmol/kg bw) and cumulative food intake measured at regular intervals, to assess the pharmacodynamic profile of the test peptides. For food intake studies, mice were provided with preweighed rodent maintenance diet in their food hopper at t = 0 min, which was then re‐weighed at each timepoint with all due care taken to account for any wastage or crumbling of the food pellets. In this regard, the investigator was present at all times during the 180‐min test period to ensure accuracy and consistency in all measurements. Furthermore, effects of PP or related peptides (25 nmol/kg bw) on glucose homeostasis and insulin secretion were evaluated in overnight fasted mice following i.p. injection of glucose alone (18 mmol/kg bw) or in combination with PP peptides (each at 25 nmol/kg bw).

A short description of data set [3]: In vitro DPP‐4 degradation. Conditions: isolated enzyme; peptide 50 μg with purified human DPP‐4 (5 μL, 0.01 U/L), 37°C, 8 h; stopped with 10% (v/v) trifluoroacetic acid; rp‐HPLC C‐18, UV 214 nm; peaks by MALDI‐MS; read-out: % intact peptide after 8 h DPP‐4 incubation. In kind it is in vitro ADME, human. Here is the method:
PP peptides (50 μg) were incubated at 37°C for 0–8 h with 5 μL of purified human DPP‐4 enzyme (0.01 U/L, Sigma‐Aldrich, Gillingham, UK). Degradation reactions were terminated via the addition of 10 μL 10% (v/v) trifluoroacetic acid/water solution. Reaction mixes were separated by reverse phase rp‐HPLC using a Phenomenex C‐18 analytical column (250 × 4.6 mm^2) with UV absorbance detection at 214 nm (ThermoQuest SpectraSystem UV2000 detector). HPLC peaks of interest were collected and analyzed by MALDI‐TOF MS on a Perseptive Biosystems Voyager‐DE Biospectrometry (Hertfordshire, UK).

Data set [4] deals with C57BL/6 mice. Briefly: Glucose‐stimulated plasma insulin in mice. In kind it is in vivo. The note with it: peptide 25 nmol/kg with glucose 18 mmol/kg i.p., versus glucose control; n = 6. Here is the method:
Acute in vivo studies were conducted in groups (n = 6) of 4‐month‐old male C57BL/6 mice (Envigo, Huntington, UK). All mice were maintained on standard rodent chow (10% fat, 30% protein, and 60% carbohydrate; Trouw Nutrition, Northwich, UK), and drinking water provided ad libitum. Mice were housed individually and kept in a temperature‐controlled environment (22 ± 2°C), with a 12‐h light/dark cycle. Experiments were carried out in accordance with the UK Animal Scientific Procedures Act 1986 as well as being approved by Ulster University Animal Ethics Review Committee (AWERB) committee and protected by the UK Home Office Animal project license number PPL2902, approved on April 26, 2021. Acute effects of test peptides on food intake were tested in overnight (16 h) fasted mice. Briefly, fasted mice were administered an intraperitoneal (i.p.) injection of saline vehicle (0.9% (w/v) NaCl) alone or in combination with test peptides (each at 25, 75, or 200 nmol/kg bw) and cumulative food intake measured at regular intervals, to assess the pharmacodynamic profile of the test peptides. For food intake studies, mice were provided with preweighed rodent maintenance diet in their food hopper at t = 0 min, which was then re‐weighed at each timepoint with all due care taken to account for any wastage or crumbling of the food pellets. In this regard, the investigator was present at all times during the 180‐min test period to ensure accuracy and consistency in all measurements. Furthermore, effects of PP or related peptides (25 nmol/kg bw) on glucose homeostasis and insulin secretion were evaluated in overnight fasted mice following i.p. injection of glucose alone (18 mmol/kg bw) or in combination with PP peptides (each at 25 nmol/kg bw). […] Blood glucose was measured immediately using a hand‐held Ascencia Contour blood glucose meter (Bayer Healthcare, Newbury, Berkshire, UK). For plasma insulin, blood was collected in chilled fluoride/heparin‐coated microcentrifuge tubes (Sarstedt, Numbrecht, Germany) and centrifuged using a Beckman microcentrifuge (Beckman Instruments, Galway, Ireland) for 10 min at 12,000 rpm. Plasma was separated and stored at −20°C, until determination of plasma insulin by radioimmunoassay.[23]

Starred links: 1 amine or outer side, 2 acyl side, 3 side chain; linkers in the order of their positions; H or OH if unused. Residues, ends and D or L forms follow the SMILES beside them. Groups on a side chain read outwards from the residue. *: point of attachment. γGlu = O=C(O)[C@H](CCC(=O)[*:2])N[*:1]; Palmitoyl = CCCCCCCCCCCCCCCC(=O)*

Consider `CCCCCCCCCCCCCCCC(=O)N[C@@H](CCC(=O)NCCCC[C@H](NC(=O)[C@H](C)NC(=O)[C@H](CC(N)=O)NC(=O)[C@H](CC(=O)O)NC(=O)CNC(=O)[C@@H]1CCCN1C(=O)[C@H](Cc1ccc(O)cc1)NC(=O)[C@@H](NC(=O)[C@@H]1CCCN1C(=O)[C@H](CCC(=O)O)NC(=O)[C@@H]1CCCN1C(=O)[C@@H]1CCCN1C(=O)[C@H](C)N)C(C)C)C(=O)N1CCC[C@H]1C(=O)N[C@@H](CCC(=O)O)C(=O)N[C@@H](CCC(N)=O)C(=O)N[C@@H](CCSC)C(=O)N[C@@H](C)C(=O)N[C@@H](CCC(N)=O)C(=O)N[C@@H](Cc1ccc(O)cc1)C(=O)N[C@@H](C)C(=O)N[C@@H](C)C(=O)N[C@@H](CC(=O)O)C(=O)N[C@@H](CC(C)C)C(=O)N[C@@H](CCCNC(=N)N)C(=O)N[C@@H](CCCNC(=N)N)C(=O)N[C@@H](Cc1ccc(O)cc1)C(=O)N[C@H](C(=O)N[C@@H](CC(N)=O)C(=O)N[C@@H](CCSC)C(=O)N[C@@H](CC(C)C)C(=O)N[C@H](C(=O)N[C@@H](CCCNC(=N)N)C(=O)N1CCC[C@H]1C(=O)N[C@@H](CCCNC(=N)N)C(=O)N[C@@H](Cc1ccc(O)cc1)C(N)=O)[C@@H](C)O)[C@@H](C)CC)C(=O)O` [[P^3,K^13Pal]PP] (H-APPEPVYPGDNAK([γGlu-Palmitoyl])PEQMAQYAADLRRYINMLTRPRY-NH2; N-terminus assumed), for which the “effect on CCK‐8 benefit on glucose disposal” value in data set [1] is “mildly impair the overall glucose‐lowering action of CCK‐8”. Moreover, the “food intake in overnight fasted mice, summary in discussion” value in data set [2] was “retained impressive effects to restrict food intake”. In addition, in data set [3], the remaining at 8 h is above 99%. Further, in data set [4], the “glucose‐induced insulin secretion (plasma insulin)” value is given as “slightly decreasing (p = <0.05 to 0.01)”.

Source of the values: paper PMC11627468, “Novel enzyme‐resistant pancreatic polypeptide analogs evoke pancreatic beta‐cell rest, enhance islet cell turnover, and inhibit food intake in mice” (Biofactors (Oxford, England), 2024).
